One substance from US6441036B1 (priority 1998, dated 2002) can be followed below.

The nature of data set [1]: Lipid lowering effect in obese Zucker fa/fa rats (Example 3). It counts as in vivo. The conditions noted are these: 300 mg/day/kg by gavage once daily for 10 days; control palmitic acid. As to the method:
(§1) Glucose (GLU, Boehringer Mannheim, Germany), free fatty acids (NEFA, C ACS-ACOD kit; Wako Chemicals, Dalton, USA) and b-hydroxybutyrate (310-A kit; Sigma Diagnostics Inc., St. Louis, USA) concentrations were measured using enzymatic methods. Insulin concentrations were determined with radioimmunoassay by (CIS bio International, Gif sur Yvette, France) using rat insulin as standard in the Zucker rats. In the Wistar Charles River rats, plasma glucose concentrations were measured with the aid of Beckman Glucose Analyzer (Fullerton, Calif., USA). Plasma insulin levels were measured using a RIA kit from Linco Research Inc. (St. Charles, Mo., USA). Phospholipids were measured by the enzymatic method of bioMérieux, Marcy-l{grave over ( )}Etoile, France, Triacylglycerol by the Technicon Method no. SA4-0324L90, USA and Cholesterol by the Technicon Method no. SA4-0305L90, USA.
Male obese Zucker fa/fa rats, weighing 100 g at the start of the experiment, were housed in pairs in metal wire cages in a room maintained at 12 h light-dark cycles and a constant temperature of 20±3° C. The animals were acclimatised for at least one week under these conditions before the start of the experiment.
TTA (tetradecylthioacetic acid) prepared in accordance with procedure described previously, and palmitic acid (control), was suspended in 0.5% (w/v) carboxymethyl cellulose (CMC). Six animals were used in both groups. TTA (tetradecylthioacetic acid) and palmitic acid were administered at a dose of 300 mg/day/kg body weight, by gastric intubation (gavage) once daily for 10 days. The rats were fasted for 2 hours before termination of the experiment. Blood and organs were collected. Lipid concentrations in plasma were determined using an autoanalyzer, as described in the method section.

Data set [2] is described as follows: High fat diet induced hyperinsulinemia (Example 11). It counts as in vivo, Wistar Charles River rats. The conditions noted are these: HF diet supplemented with TTA, 21 days, overnight fast. As to the method: as §1
Rats weighing 280-360 g were divided into 3 groups (n=6) and fed with three different diets: standard rat chow, high fat diet (HF) and HF supplemented with TTA. After 21 days on their respective diets, blood was collected after an overnight fast from the tail vein. The data are shown as mean±SEM. Results were analysed by ANOVA and different letters denote statistical significance (p<0.05).

A short description of data set [3]: Fatty acid composition in liver and plasma of obese Zucker fa/fa rats (Example 19). In kind it is in vivo. The conditions noted are these: 300 mg/day/kg by gavage once daily for 10 days. On the procedure: Male obese Zucker fa/fa rats, weighing 100 g at the start of the experiment, were housed in pairs in metal wire cages in a room maintained at 12 h light-dark cycles and a constant temperature of 20±° C. The animals were acclimatised for at least one week under these conditions before the start of the experiment.
TTA and palmitic acid (control), was suspended in 0.5% (w/v) carboxymethyl cellulose (CMC) and administered at a dose of 300 mg/day/kg body weight, by gastric intubation (gavage) once daily for 10 days. The rats were fasted for 2 hours before termination of the experiment. Blood and organs were collected. Total lipids were extracted from liver and plasma. The lipids were evaporated, saponified and esterified prior to separation using a Carlo Erba 2900 gas-chromatograph.

Data set [4] relates to mitochondrial β-oxidation. As to the kind of experiment: Liver fatty acid oxidation in treated obese Zucker rats (Example 16). In kind it is in vivo, obese Zucker (fa/fa) rats. The conditions noted are these: palmitoyl-CoA and palmitoyl-L-carnitine as substrates; chow with 0.15% TTA, 21 days. As to the method: Freshly isolated livers from individual old Zucker rats, were homogenised in ice-cold sucrose buffer (0.25 M sucrose, 10 mM HEPES (pH 7.4) and 2 mM EDTA). Post-nuclear and mitochondrial fractions were prepared using preparative differential centrifugation according to DeDuve et al. (De Duve, C., et al., Biochem. J., 60, 604-617 1955.) Modifications, purity and yield were as described earlier (Garras, A., et al., Biochim. Biophys. Acta, 1255, 154-160 1995.). Acid soluble products were measured in post-nuclear and mitochondrial enriched fractions, using [1-^14C]-palmitoyl-CoA and [1-^14C]-palmitoyl-L-carnitine (Radio-chemical Centre, Amersham, England) as substrates as described earlier (Willumsen, N., et al., J. Lipid Res., 34, 13-22 1993. Carnitine palmitoyltransferase-I and -II activities were measured in the post-nuclear and mitochondrial fractions essentially as described by Bremer (Bremer, J., Biochim. Biophys. Acta, 665, 628-631 1981.) and 3-hydroxy-3-methylglutharyl-CoA synthase was measured according to Clinkenbeard et al. (Clinkenbeard, K. D., et al., J. Biol. Chem, 250, 3108-3116 1975.) in the mitochondrial fractions.
Obese Zucker (fa/fa) rats were given a standard chow either with (n=6) or without (n=5) 0.15% TTA. Following 21 days of treatment, rats were killed by cervical dislocation and the livers were removed. […] Values are expressed as the mean±S.D.

A short description of data set [5]: Blood insulin and glucose in 5 weeks old Zucker (fa/fa) rats (Example 13). Particulars: 300 mg/kg/day by oral gavage, 11 days. It counts as in vivo. On the procedure:
as §1
The rats were administered TTA at a dose of 300 mg/kg/day suspended in 0.5% CMC (n=6) by oral gavage. Following 11 days of treatment, rats were killed by cervical dislocation. Blood was collected and the levels of insulin and glucose measured as indicated in the method section. Data are means±S.D.

The nature of data set [6]: Weight reduction in dogs (Example 10). It counts as in vivo. The conditions noted are these: male dogs, 500 mg/kg/day orally in capsules. On the procedure:
3 male dogs (4-6 months old) were housed singly during the days. Each animal was offered 400g of SQC Diet A each morning after dosing and any residue diet was removed in the afternoon. The drug was administered orally in capsules once daily for 28 days.

The nature of data set [7]: Fatty acid content after 12 weeks administration to rats. In kind it is in vivo. The conditions noted are these: administration to rats for 12 weeks.

Turning to Tetradecylthioacetic acid [TTA], in data set [1], the “Decreased lipid level in plasma: Cholesterol” value was 73 % of control, the “Decreased lipid level in plasma: Phospholipids” value is on record as 71 % of control and the “Decreased lipid level in plasma: Triglycerides” value is given as 72 % of control. Further, the “High fat diet-induced hyperinsulinemia (FIG. 3)” value in data set [2] is “prevents high fat diet-induced hyperinsulinemia”. Also, in data set [3], the “Fatty acid composition in liver: Monounsaturated tetradecylthioacetic acid” value is 1.1 ± 0.2 % of total, the “Fatty acid composition in liver: Oleic acid” value is listed as 14.9 ± 1.0 % of total, the “Fatty acid composition in plasma: Monounsaturated tetradecylthioacetic acid” value is reported as 0.2 ± 0.1 % of total and the “Fatty acid composition in plasma: Oleic acid” value was 22.1 ± 0.5 % of total. Also, in data set [4], the “Increase of liver fatty acid oxidation (FIG. 8A)” value is given as “more than 7 fold”. Moreover, in data set [5], the “Reduction of blood concentration of glucose (FIG. 5)” value is around 15% and the “Reduction of blood insulin concentration (FIG. 5)” value is reported as around 40%. This substance also showed a Mean body weight in data set [6] (week 0) of 9.22 kg. The substance also showed a Mean body weight in data set [6] (week 1) of 8.95 kg. The Mean body weight in data set [6] (week 2) was found to be 8.75 kg. Besides, the Mean body weight in data set [6] (week 3) stood at 8.58 kg. In data set [6] (week 4), this substance registered a Mean body weight of 8.50 kg. Further, in data set [7], the “Hepatic and plasma content of monounsaturated fatty acids (mainly oleic acid)” value is given as “nearly doubled”; the “Polyunsaturated fatty acids (mainly linoleic acid and DHA)” value is on record as “decreased”.
